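In this assay, cells in 96-well plates receive the compound at five concentrations for 48 hours. Endpoints are linearly interpolated between the surrounding concentrations. GI50 = concentration required for 50% inhibition of growth. Definition used: TGI = concentration required for complete inhibition of growth.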
tested on: MALME-3M melanoma; experiment: inhibition of tumour cell growth, NCI panel, 48 h

SMILES | TGI | GI50
Cc1c2c(C#N)nccc2c(C)c2c1c1ccccc1n2Cc1ccccc1 | > 100 µM | 
COc1cc(Cn2c(-c3ccccc3)c(Cl)c3c2-c2oncc2CC3)cc(OC)c1 | 21.1 µM | 4.16 µM
CN(C)C(n1cc2c(c1)-c1ccc(Cl)cc1C(c1ccccc1F)=NC2)n1cc2c(c1)-c1ccc(Cl)cc1C(c1ccccc1F)=NC2 | > 100 µM | 
COc1cc2c(cc1OCCCNC(=O)c1cccc3c(=O)c4ccccc4[nH]c13)N=C[C@@H]1CCCN1C2=O | 0.388 µM | 
CCOc1ccc(NC(=O)CC#N)cc1 | > 100 µM | 
O=C(/C=C/c1cccc2ccccc12)c1ccccc1Cl | 30.2 µM | 
O=C1/C(=C/c2ccc(Cl)cc2)CCC1CCN1CCOCC1 (stereo not drawn) | > 100 µM | 
CCOC(=O)Nc1ccc(C)c(NC(=O)OCC)c1 | > 100 µM | 
C1CN2CCN3CCN4CCN1[P+]243 | > 100 µM | 

tested on: A549 NSCLC; experiment: inhibition of tumour cell growth, NCI panel, 48 h

SMILES | GI50 | TGI
COc1ccc(C(=O)/C=C/c2cc(-c3cc(OC)c(OC)c(OC)c3)n[nH]2)cc1OC | 1.86 µM | 4.59 µM
CCCC(=O)Nc1cc2c3c(c1)CCCN3CCC2 |  | > 10 µM
COc1cc(-c2cc(-c3cc4c([nH]c5ccccc54)c(-c4cc(OC)c(OC)c(OC)c4)n3)cc(-c3ccccc3)n2)cc(OC)c1OC | 3.4 µM | 80.9 µM
CC(C)Oc1ccc2cc(-c3nn(CC4CCNCC4)c4ncnc(N)c34)ccc2c1 | 14.5 µM | 28.3 µM
O=C1/C(=C/c2cccc(Cl)c2Cl)N=C(c2ccccc2)N1C1CC1 | 19.7 µM | > 50 µM
Cc1c2c(C#N)nccc2c(C)c2c1c1ccccc1n2Cc1ccccc1 |  | > 100 µM
COc1cc(Cn2c(-c3ccccc3)c(Cl)c3c2-c2oncc2CC3)cc(OC)c1 | 8.57 µM | > 100 µM
CN(C)C(n1cc2c(c1)-c1ccc(Cl)cc1C(c1ccccc1F)=NC2)n1cc2c(c1)-c1ccc(Cl)cc1C(c1ccccc1F)=NC2 |  | > 100 µM
COc1cc2c(cc1OCCCNC(=O)c1cccc3c(=O)c4ccccc4[nH]c13)N=C[C@@H]1CCCN1C2=O | 0.0202 µM | > 100 µM
CCOc1ccc(NC(=O)CC#N)cc1 |  | > 100 µM
O=C(/C=C/c1cccc2ccccc12)c1ccccc1Cl |  | 55.7 µM
COc1ccc(Nc2nnc(-c3cc(O)ccc3O)s2)cc1 | > 50 µM | > 50 µM
O=C1/C(=C/c2ccc(Cl)cc2)CCC1CCN1CCOCC1 (stereo not drawn) |  | > 100 µM
CCOC(=O)Nc1ccc(C)c(NC(=O)OCC)c1 |  | > 100 µM
C1CN2CCN3CCN4CCN1[P+]243 |  | > 100 µM

tested on: HT29 colon; experiment: inhibition of tumour cell growth, NCI panel, 48 h

SMILES | GI50 | TGI
COc1ccc(C(=O)/C=C/c2cc(-c3cc(OC)c(OC)c(OC)c3)n[nH]2)cc1OC | 1.62 µM | 3.05 µM
CCCC(=O)Nc1cc2c3c(c1)CCCN3CCC2 |  | > 10 µM
COc1cc(-c2cc(-c3cc4c([nH]c5ccccc54)c(-c4cc(OC)c(OC)c(OC)c4)n3)cc(-c3ccccc3)n2)cc(OC)c1OC | 4.03 µM | 25.5 µM
CC(C)Oc1ccc2cc(-c3nn(CC4CCNCC4)c4ncnc(N)c34)ccc2c1 | 2.78 µM | 12.2 µM
O=C1/C(=C/c2cccc(Cl)c2Cl)N=C(c2ccccc2)N1C1CC1 | 18.2 µM | > 50 µM
Cc1c2c(C#N)nccc2c(C)c2c1c1ccccc1n2Cc1ccccc1 |  | > 100 µM
COc1cc(Cn2c(-c3ccccc3)c(Cl)c3c2-c2oncc2CC3)cc(OC)c1 | 3.71 µM | > 100 µM
CN(C)C(n1cc2c(c1)-c1ccc(Cl)cc1C(c1ccccc1F)=NC2)n1cc2c(c1)-c1ccc(Cl)cc1C(c1ccccc1F)=NC2 |  | > 100 µM
COc1cc2c(cc1OCCCNC(=O)c1cccc3c(=O)c4ccccc4[nH]c13)N=C[C@@H]1CCCN1C2=O |  | > 56.3 µM
CCOc1ccc(NC(=O)CC#N)cc1 |  | > 100 µM
O=C(/C=C/c1cccc2ccccc12)c1ccccc1Cl |  | 26.4 µM
COc1ccc(Nc2nnc(-c3cc(O)ccc3O)s2)cc1 | > 50 µM | > 50 µM
O=C1/C(=C/c2ccc(Cl)cc2)CCC1CCN1CCOCC1 (stereo not drawn) |  | > 100 µM
CCOC(=O)Nc1ccc(C)c(NC(=O)OCC)c1 |  | > 100 µM
C1CN2CCN3CCN4CCN1[P+]243 |  | > 100 µM

tested on: A498 renal; experiment: inhibition of tumour cell growth, NCI panel, 48 h

SMILES | GI50 | TGI
COc1ccc(C(=O)/C=C/c2cc(-c3cc(OC)c(OC)c(OC)c3)n[nH]2)cc1OC | 1.48 µM | 2.98 µM
COc1cc(-c2cc(-c3cc4c([nH]c5ccccc54)c(-c4cc(OC)c(OC)c(OC)c4)n3)cc(-c3ccccc3)n2)cc(OC)c1OC | 1.64 µM | 7.96 µM
CC(C)Oc1ccc2cc(-c3nn(CC4CCNCC4)c4ncnc(N)c34)ccc2c1 | 14.2 µM | 28.2 µM
COc1cc(Cn2c(-c3ccccc3)c(Cl)c3c2-c2oncc2CC3)cc(OC)c1 | 2.96 µM | 90.3 µM
CN(C)C(n1cc2c(c1)-c1ccc(Cl)cc1C(c1ccccc1F)=NC2)n1cc2c(c1)-c1ccc(Cl)cc1C(c1ccccc1F)=NC2 |  | > 100 µM
COc1cc2c(cc1OCCCNC(=O)c1cccc3c(=O)c4ccccc4[nH]c13)N=C[C@@H]1CCCN1C2=O | < 0.01 µM | 0.0225 µM
CCOc1ccc(NC(=O)CC#N)cc1 |  | > 100 µM
O=C(/C=C/c1cccc2ccccc12)c1ccccc1Cl |  | 29.5 µM
COc1ccc(Nc2nnc(-c3cc(O)ccc3O)s2)cc1 | > 50 µM | > 50 µM
O=C1/C(=C/c2ccc(Cl)cc2)CCC1CCN1CCOCC1 (stereo not drawn) |  | > 100 µM
CCOC(=O)Nc1ccc(C)c(NC(=O)OCC)c1 |  | > 100 µM
C1CN2CCN3CCN4CCN1[P+]243 |  | > 100 µM

tested on: 786-0 renal; experiment: inhibition of tumour cell growth, NCI panel, 48 h

SMILES | GI50 | TGI
COc1ccc(C(=O)/C=C/c2cc(-c3cc(OC)c(OC)c(OC)c3)n[nH]2)cc1OC | 1.4 µM | 2.86 µM
CCCC(=O)Nc1cc2c3c(c1)CCCN3CCC2 |  | > 10 µM
COc1cc(-c2cc(-c3cc4c([nH]c5ccccc54)c(-c4cc(OC)c(OC)c(OC)c4)n3)cc(-c3ccccc3)n2)cc(OC)c1OC | 7.15 µM | > 100 µM
CC(C)Oc1ccc2cc(-c3nn(CC4CCNCC4)c4ncnc(N)c34)ccc2c1 | 11 µM | 24.4 µM
O=C1/C(=C/c2cccc(Cl)c2Cl)N=C(c2ccccc2)N1C1CC1 | 7.29 µM | 14.4 µM
Cc1c2c(C#N)nccc2c(C)c2c1c1ccccc1n2Cc1ccccc1 |  | > 100 µM
COc1cc(Cn2c(-c3ccccc3)c(Cl)c3c2-c2oncc2CC3)cc(OC)c1 | 12.9 µM | > 100 µM
CN(C)C(n1cc2c(c1)-c1ccc(Cl)cc1C(c1ccccc1F)=NC2)n1cc2c(c1)-c1ccc(Cl)cc1C(c1ccccc1F)=NC2 |  | > 100 µM
COc1cc2c(cc1OCCCNC(=O)c1cccc3c(=O)c4ccccc4[nH]c13)N=C[C@@H]1CCCN1C2=O | < 0.01 µM | 24 µM
CCOc1ccc(NC(=O)CC#N)cc1 |  | > 100 µM
O=C(/C=C/c1cccc2ccccc12)c1ccccc1Cl |  | 27.2 µM
COc1ccc(Nc2nnc(-c3cc(O)ccc3O)s2)cc1 | > 50 µM | > 50 µM
O=C1/C(=C/c2ccc(Cl)cc2)CCC1CCN1CCOCC1 (stereo not drawn) |  | > 100 µM
CCOC(=O)Nc1ccc(C)c(NC(=O)OCC)c1 |  | > 100 µM
C1CN2CCN3CCN4CCN1[P+]243 |  | > 100 µM

From PubChem BioAssay (NCI)
